Measured values taken from ChEMBL document CHEMBL4184158, “Azolylthioacetamides as a potent scaffold for the development of metallo-β-lactamase inhibitors” (Bioorg Med Chem Lett, 2017).
The source made the active and inactive calls. The rule behind the calls is not given here.

Assays:
[1] = test system: Bacteria; experiment: Inhibition of bacterial metallo-beta-lactamase L1 expressed in Escherichia coli […] cells at 500 uM using imipenem as substrate by UV spectrometry
[2] = test system: Bacteria; experiment: Inhibition of bacterial NDM1 expressed in Escherichia coli BL21 (DE3) transformed cells assessed as potentiation of imipenem-induced antibacterial activity by measuring imipenem MIC after 20 hrs by broth microdilution assay (reference value: 16 ug/ml)
[3] = test system: Bacteria; experiment: Inhibition of bacterial ImiS expressed in Escherichia coli BL21 (DE3) transformed cells assessed as potentiation of imipenem-induced antibacterial activity by measuring imipenem MIC after 20 hrs by broth microdilution assay (reference value: 1 ug/ml)
[4] = Inhibition of bacterial NDM1 expressed in Escherichia coli DH5R transformed cells using imipenem as substrate by UV spectrometry; parameters: species or system Bacteria
[5] = test system: Bacteria; experiment: Inhibition of bacterial ImiS expressed in Escherichia coli BL21 (DE3) transformed cells at 500 uM using imipenem as substrate by UV spectrometry
[6] = test system: Escherichia coli; experiment: Antibacterial activity against Escherichia coli BL21(DE3) at 16 ug/ml after 20 hrs by broth microdilution assay; assay type: functional, organism-based
[7] = test system: Bacteria; experiment: Inhibition of bacterial NDM1 expressed in Escherichia coli DH5R transformed cells at 500 uM using imipenem as substrate by UV spectrometry
[8] = Inhibition of bacterial ImiS expressed in Escherichia coli BL21 (DE3) transformed cells using imipenem as substrate by UV spectrometry; parameters: species or system Bacteria
[9] = test system: Bacteria; experiment: Competitive inhibition of bacterial ImiS expressed in Escherichia coli BL21 (DE3) transformed cells using imipenem as substrate after 5 mins by Lineweaver-Burk plot method
[10] = test system: Bacteria; experiment: Uncompetitive inhibition of bacterial ImiS expressed in Escherichia coli BL21 (DE3) transformed cells using imipenem as substrate after 5 mins by Lineweaver-Burk plot method

SMILES	inhibition [1]	MIC [2]	MIC [3]	IC50 [4]	inhibition [5]	Activity [6]	inhibition [7]	IC50 [8]	Kic [9]	Kiuc [10]
O=C(CSc1nnc(-c2cccc([N+](=O)[O-])c2)s1)Nc1nc2ccc([N+](=O)[O-])cc2[nH]1	inactive	8 µg/mL	1 µg/mL	5.1 µM	inactive	inactive	–	–	–	–
Nc1ccccc1-c1nnc(SCC(=O)Nc2nc3ccccc3[nH]2)o1	inactive	16 µg/mL	0.25 µg/mL	–	–	inactive	inactive	1.7 µM	–	–
O=C(CSc1nnc(-c2ccccc2O)s1)Nc1nc2ccc([N+](=O)[O-])cc2[nH]1	inactive	8 µg/mL	1 µg/mL	6.4 µM	inactive	inactive	–	–	–	–
O=C(CSc1nnc(Cc2ccccc2)s1)Nc1nc2ccccc2[nH]1	inactive	16 µg/mL	0.5 µg/mL	–	–	inactive	inactive	18 µM	–	–
O=C(CSc1nnc(-c2cccc([N+](=O)[O-])c2)[nH]1)Nc1nc2ccccc2o1	inactive	16 µg/mL	0.25 µg/mL	–	–	inactive	inactive	378 µM	–	–
Nc1ccccc1-c1nnc(SCC(=O)Nc2nc3ccccc3[nH]2)s1	inactive	32 µg/mL	0.5 µg/mL	–	–	inactive	inactive	1.2 µM	–	–
Nc1ccccc1-c1nnc(SCC(=O)Nc2nc3ccc([N+](=O)[O-])cc3[nH]2)n1N	inactive	8 µg/mL	1 µg/mL	1.1 µM	inactive	inactive	–	–	–	–
O=C(CSc1nnc(-c2cccc([N+](=O)[O-])c2)s1)Nc1nc2ccccc2o1	inactive	16 µg/mL	0.5 µg/mL	–	–	inactive	inactive	133 µM	–	–
Nn1c(Cc2cccs2)nnc1SCC(=O)Nc1nc2ccccc2o1	inactive	16 µg/mL	0.5 µg/mL	–	–	inactive	inactive	53 µM	–	–
Nn1c(Cc2ccccc2)nnc1SCC(=O)Nc1nc2ccccc2[nH]1	inactive	16 µg/mL	0.5 µg/mL	–	–	inactive	inactive	0.27 µM	–	–
Nn1c(Cc2ccccc2)nnc1SCC(=O)Nc1nc2ccc([N+](=O)[O-])cc2[nH]1	inactive	4 µg/mL	1 µg/mL	0.73 µM	inactive	inactive	–	–	–	–
O=C(CSc1nnc(-c2ccccc2O)o1)Nc1nc2ccccc2[nH]1	inactive	16 µg/mL	0.5 µg/mL	–	–	inactive	inactive	0.63 µM	–	–
O=C(CSc1nnc(-c2ccccc2O)[nH]1)Nc1nc2ccc([N+](=O)[O-])cc2[nH]1	inactive	8 µg/mL	1 µg/mL	5.9 µM	inactive	inactive	–	–	–	–
O=C(CSc1nnc(-c2ccccc2O)s1)Nc1nc2ccccc2[nH]1	inactive	16 µg/mL	0.5 µg/mL	–	–	inactive	inactive	0.33 µM	–	–
O=C(CSc1nnc(Cc2ccccc2)o1)Nc1nc2ccccc2[nH]1	inactive	16 µg/mL	0.25 µg/mL	–	–	inactive	inactive	3 µM	–	–
O=C(CSc1nnc(-c2ccccc2O)s1)Nc1nc2ccccc2o1	inactive	16 µg/mL	0.5 µg/mL	–	–	inactive	inactive	196 µM	–	–
O=C(CSc1nnc(-c2ccccc2O)o1)Nc1nc2ccc([N+](=O)[O-])cc2[nH]1	inactive	8 µg/mL	1 µg/mL	1.3 µM	inactive	inactive	–	–	–	–
Nn1c(Cc2ccccc2)nnc1SCC(=O)Nc1nc2ccccc2o1	inactive	16 µg/mL	0.5 µg/mL	–	–	inactive	inactive	29 µM	–	–
O=C(CSc1nnc(-c2cccc([N+](=O)[O-])c2)s1)Nc1nc2ccccc2[nH]1	inactive	16 µg/mL	0.5 µg/mL	–	–	inactive	inactive	1.8 µM	–	–
O=C(CSc1nnc(Cc2ccccc2)o1)Nc1nc2ccccc2o1	inactive	32 µg/mL	0.5 µg/mL	–	–	inactive	inactive	384 µM	–	–
Nc1ccccc1-c1nnc(SCC(=O)Nc2nc3ccccc3[nH]2)[nH]1	inactive	16 µg/mL	0.5 µg/mL	–	–	inactive	inactive	0.94 µM	–	–
Nc1ccccc1-c1nnc(SCC(=O)Nc2nc3ccccc3[nH]2)n1N	inactive	16 µg/mL	0.25 µg/mL	–	–	inactive	inactive	0.015 µM	22 nM	11 nM
O=C(CSc1nnc(Cc2ccccc2)o1)Nc1nc2ccc([N+](=O)[O-])cc2[nH]1	inactive	4 µg/mL	1 µg/mL	0.5 µM	inactive	inactive	–	–	–	–
Nc1ccccc1-c1nnc(SCC(=O)Nc2nc3ccc([N+](=O)[O-])cc3[nH]2)s1	inactive	8 µg/mL	2 µg/mL	2.5 µM	inactive	inactive	–	–	–	–
Nn1c(Cc2cccs2)nnc1SCC(=O)Nc1nc2ccccc2[nH]1	inactive	16 µg/mL	0.25 µg/mL	–	–	inactive	inactive	0.077 µM	110 nM	80 nM
O=C(CSc1nnc(Cc2ccccc2)s1)Nc1nc2ccccc2o1	inactive	16 µg/mL	0.5 µg/mL	–	–	inactive	inactive	259 µM	–	–
O=C(CSc1nnc(CCc2nnc(SCC(=O)Nc3nc4ccccc4[nH]3)s2)s1)Nc1nc2ccccc2[nH]1	inactive	16 µg/mL	0.25 µg/mL	–	–	inactive	inactive	0.39 µM	–	–
